Test results published in article PMC9052077 (Computational and Structural Biotechnology Journal, 2022).
Entries after “also recorded” stand apart in the source; their conditions may differ. Read-outs that look alike come from different tables or passages of the source.

System: HK-2 cells
Test: cells
Format: cell-based, human
Details: for IC50 value for HK-2 cells: 24 h
[1] = Homo sapiens, HK-2, 24 h, HK-2 cells, 24 h exposure, SRB assay, Table 1
[2] = Homo sapiens, HK-2, read-out: Activity IC50 (μM), HK-2 cells, Table 4
[3] = Homo sapiens, HK-2, read-out: Activity pIC50, HK-2 cells (converted), Table 4
[4] = Homo sapiens, HK-2, read-out: Bioactivity (μM), HK-2 cells, Table 3

SMILES | IC50 [1] | IC50 [2] | IC50 [3] | IC50 [4] | IC50 value for HK-2 cells (HK-2 cells, SRB assay) | IC50 (HK-2 cells, 24 h exposure, SRB assay, Table 1) | Activity pIC50 (HK-2 cells, Table 4) | Actual value (pIC50) (HK-2 cells, converted from IC50 by eq 2, Table 3) | IC50 (read-out: Activity IC50, HK-2 cells, Table 4) | IC50 (read-out: Bioactivity, HK-2 cells, Table 3)
C/C=C(/C)C(=O)O[C@H]1C(C)=C2[C@H]([C@@H]1OC(=O)CCCCCCC)[C@@](C)(OC(C)=O)C[C@H](OC(=O)CCC)[C@@]1(O)[C@H]2OC(=O)[C@@]1(C)O [Compound 1, Thapsigargin] | 0.18 µM | 0.18 µM | 0.182 µM | 0.18 µM |  |  |  |  |  | 
C[C@@H]1Cc2c(Cl)cc(C(=O)N[C@@H](Cc3ccccc3)C(=O)O)c(O)c2C(=O)O1 [Compound 3, Ochratoxin A] | 46.1 µM | 46.1 µM | 45.7 µM | 46.1 µM | micromolar of tens digit |  |  |  |  | 
C[C@@H](NCCCc1cccc(C(F)(F)F)c1)c1cccc2ccccc12 [Compound 8, Cinacalcet] | 17.1 µM | 17.1 µM | 17 µM | 17.1 µM | micromolar of tens digit |  |  |  |  | 
C=CC[C@@H]1/C=C(\C)C[C@H](C)C[C@H](OC)[C@H]2O[C@@](O)(C(=O)C(=O)N3CCCC[C@H]3C(=O)O[C@H](/C(C)=C/[C@@H]3CC[C@@H](O)[C@H](OC)C3)[C@H](C)[C@@H](O)CC1=O)[C@H](C)C[C@@H]2OC [Compound 9, Tacrolimus] | 49.4 µM | 49.4 µM | 49 µM | 49.4 µM | micromolar of tens digit |  |  |  |  | 
CO[C@@]12[C@H](COC(N)=O)C3=C(C(=O)C(C)=C(N)C3=O)N1C[C@@H]1N[C@@H]12 [Compound 10, Mitomycin C] | 5.04 µM | 5.04 µM | 5.01 µM | 5.04 µM | unit digits; also recorded: micromolar of tens digit |  |  |  |  | 
COc1ccnc(C[S+]([O-])c2nc3ccc(OC(F)F)cc3[nH]2)c1OC (stereo not drawn) [Compound 11, Pantoprazole] | 300 µM | 300 µM | 302 µM | 300 µM |  |  |  |  |  | 
N.N.[Cl][Pt][Cl] [Compound 12, Cisplatin] |  |  |  |  | micromolar of tens digit | 25.4 µM | 4.59 | 4.59 | 25.4 µM | 25.4 µM
C[C@@H]1[C@H](O)[C@@H](C)/C=C/C=C/C=C/C=C/C=C/C=C/C=C/[C@H](O[C@@H]2O[C@H](C)[C@@H](O)[C@H](N)[C@@H]2O)C[C@@H]2O[C@](O)(C[C@@H](O)C[C@@H](O)[C@H](O)CC[C@@H](O)C[C@@H](O)CC(=O)O[C@H]1C)C[C@H](O)[C@H]2C(=O)O [Compound 13, Amphotericin B] | 3.7 µM | 3.7 µM | 3.72 µM | 3.7 µM | unit digits |  |  |  |  | 
